Among the data in PubChem BioAssay AID304 (DTP/NCI, 2004) are T/C values, retold here.

The test has as its system Lymphosarcoma Mecca ip in C3AKF1 mice, survival T/C%. The experiment in a line: NCI In Vivo Anticancer Drug Screen. Data for tumor model Lymphosarcoma Mecca (intraperitoneal) in C3AKF1 (CHKRF1) mice. Particulars: endpoint: survival time, mean or median, higher = longer survival. As to the method:
The antitumor activity of compounds was measured in mice bearing transplantable tumors. Survival or tumor size were measured and the results are expressed as the measurement made in the treated group (T) divided by the measurement made in the vehicle treated control group (C). The tumor model used in this assay is Lymphosarcoma Mecca (intraperitoneal) in C3AKF1 (CHKRF1) mice

The mark [1] stands for this setting: dose: 8.0 mg/kg/injection, schedule: Q01DX010 (ip), vehicle: saline.
[2] abbreviates: dose: 16.0 mg/kg/injection, schedule: Q01DX010 (ip), vehicle: saline.
[3] abbreviates: dose: 32.0 mg/kg/injection, schedule: Q01DX010 (ip), vehicle: saline.
Where [4] appears, read: dose: 12.5 mg/kg/injection, schedule: Q01DX010 (sc), vehicle: steriod suspending solution.
Where [5] appears, read: dose: 25.0 mg/kg/injection, schedule: Q01DX010 (sc), vehicle: steriod suspending solution.
[6] abbreviates: dose: 50.0 mg/kg/injection, schedule: Q01DX010 (sc), vehicle: steriod suspending solution.
[7] abbreviates: dose: 100.0 mg/kg/injection, schedule: Q01DX010 (sc), vehicle: steriod suspending solution.
Where [8] appears, read: dose: 12.5 mg/kg/injection, schedule: Q01DX010 (ip), vehicle: saline.
[9] abbreviates: dose: 25.0 mg/kg/injection, schedule: Q01DX010 (ip), vehicle: saline.
The mark [10] stands for this setting: dose: 50.0 mg/kg/injection, schedule: Q01DX010 (ip), vehicle: saline.
Where [11] appears, read: dose: 100.0 mg/kg/injection, schedule: Q01DX010 (ip), vehicle: saline.
Where [12] appears, read: dose: 0.5 mg/kg/injection, schedule: Q01DX010 (ip), vehicle: saline.
Setting [13] is: dose: 1.0 mg/kg/injection, schedule: Q01DX010 (ip), vehicle: saline.
Where [14] appears, read: dose: 2.0 mg/kg/injection, schedule: Q01DX010 (ip), vehicle: saline.
Setting [15] is: dose: 4.0 mg/kg/injection, schedule: Q01DX010 (ip), vehicle: saline.
[16] abbreviates: dose: 2.5 mg/kg/injection, schedule: Q01DX010 (ip), vehicle: saline.
Setting [17] is: dose: 5.0 mg/kg/injection, schedule: Q01DX010 (ip), vehicle: saline.
Where [18] appears, read: dose: 10.0 mg/kg/injection, schedule: Q01DX010 (ip), vehicle: saline.
Setting [19] is: dose: 125.0 micrograms/kg/injection, schedule: Q01DX010 (ip), vehicle: saline.
The mark [20] stands for this setting: dose: 250.0 micrograms/kg/injection, schedule: Q01DX010 (ip), vehicle: saline.
Where [21] appears, read: dose: 500.0 micrograms/kg/injection, schedule: Q01DX010 (ip), vehicle: saline.
Setting [22] is: dose: 200.0 mg/kg/injection, schedule: Q01DX010 (ip), vehicle: saline.
[23] abbreviates: dose: 400.0 mg/kg/injection, schedule: Q01DX010 (ip), vehicle: saline.

“And” between values parts separate entries of the source, which are not always exact repeats. Equal values may be shown once. Toxic doses and inconclusive results are not listed.

For `c1ccc(CNc2ncnc3[nH]ncc23)cc1`, the T/C is, setting by setting: under setting [1], 151 % of control; under setting [2], 100 % of control and 118 % of control; under setting [3], 90 % of control.
In the case of `O=C(Nc1ccc(C2=NCCN2)cc1)c1ccc(C(=O)Nc2ccc(C3=NCCN3)cc2)c([N+](=O)[O-])c1`, the T/C is 116 % of control (dose: 6.0 mg/kg/injection, schedule: Q01DX010 (ip), vehicle: saline); 116 % of control under setting [1]; 116 % of control (dose: 12.0 mg/kg/injection, schedule: Q01DX010 (ip), vehicle: saline).
Consider `CC/C(=C(/CC)c1ccc(O)cc1)c1ccc(O)cc1`, for which the T/C is 96 % of control and 110 % of control under setting [4]; 120 % of control under setting [5]; 88 % of control and 105 % of control under setting [6]; 92 % of control and 100 % of control under setting [7].
On to `CS(=O)(=O)OCCCCOS(C)(=O)=O`, for which the T/C is, setting by setting: (dose: 6.25 mg/kg/injection, schedule: Q01DX010 (ip), vehicle: saline) 86 % of control and 100 % of control; under setting [8], 100 % of control; under setting [9], 90 % of control; under setting [10], 95 % of control.
Turning to `CCN(CC)CCCC(C)Nc1c2ccc(Cl)cc2nc2ccc(OC)cc12` (centres undefined), the T/C under setting [8] was 100 % of control; the T/C under setting [9] is 100 % of control and 111 % of control; the T/C under setting [10] was 90 % of control and 105 % of control; the T/C under setting [11] is 95 % of control and 111 % of control.
In the case of `Nc1nc(F)nc2c1ncn2C1OC(CO)C(O)C1O` (centres undefined), the T/C runs as follows: under setting [12], 100 % of control; under setting [13], 90 % of control and 105 % of control; under setting [14], 90 % of control and 100 % of control; under setting [15], 100 % of control; under setting [1], 100 % of control.
Consider `CCOC(=O)NP(=O)(N1CC1)N1CC1`, for which the T/C under setting [16] is 111 % of control and 116 % of control; the T/C under setting [17] is 116 % of control and 122 % of control; the T/C under setting [18] is 122 % of control.
Turning to `C[C@H](N)C(=O)N[C@@H]1[C@H]2C(=C(O)C[C@@H](O)[C@@H]2O)C(=O)O[C@@H]1C`, the T/C by setting is: (dose: 150.0 mg/kg/injection, schedule: Q01DX010 (ip), vehicle: saline) 155 % of control; (dose: 300.0 mg/kg/injection, schedule: Q01DX010 (ip), vehicle: saline) 92 % of control; (dose: 600.0 mg/kg/injection, schedule: Q01DX010 (ip), vehicle: saline) 100 % of control and 120 % of control; (dose: 1200.0 mg/kg/injection, schedule: Q01DX010 (ip), vehicle: saline) 155 % of control.
In the case of `COC(=O)[C@@H]1c2cc3c(c(O)c2[C@@H](OC2OC(C)C(OC)C(C)(OC)C2OC)C[C@]1(C)O)C(=O)c1c(O)cc2c(c1C3=O)O[C@H]1O[C@]2(C)[C@H](O)[C@@H](N(C)C)[C@@H]1O` (some centres undefined), the T/C is 95 % of control and 100 % of control under setting [19]; 110 % of control under setting [20]; 100 % of control and 105 % of control under setting [21].
On to `CN(C)[C@@H]1C(=O)C(C(N)=O)=C(O)[C@@]2(O)C(=O)C3=C(O)c4c(O)cccc4C[C@H]3C[C@@H]12`, for which the T/C is 100 % of control (dose: 3.75 mg/kg/injection, schedule: Q01DX010 (ip), vehicle: saline); 100 % of control (dose: 7.5 mg/kg/injection, schedule: Q01DX010 (ip), vehicle: saline); 100 % of control (dose: 15.0 mg/kg/injection, schedule: Q01DX010 (ip), vehicle: saline); 90 % of control and 94 % of control (dose: 30.0 mg/kg/injection, schedule: Q01DX010 (ip), vehicle: saline).
For `CS(=O)(=O)OCCC(=O)N1CCN(C(=O)CCOS(C)(=O)=O)CC1`, the T/C was 120 % of control under setting [8]; 105 % of control and 110 % of control under setting [9]; 160 % of control under setting [11].
As to `NC(=O)n1cccn1`, the T/C is 90 % of control under setting [9], 100 % of control under setting [10], 100 % of control under setting [11] and 100 % of control under setting [22].
Regarding `C1CN1c1nc(N2CC2)nc(N2CC2)n1`, the T/C (dose: 0.13 mg/kg/injection, schedule: Q01DX010 (ip), vehicle: saline) was 180 % of control; the T/C (dose: 0.25 mg/kg/injection, schedule: Q01DX010 (ip), vehicle: saline) was 152 % of control; the T/C under setting [12] is 96 % of control; the T/C under setting [13] was 95 % of control.
Turning to `CS(=O)(=O)OCCCl`, the T/C (dose: 18.8 mg/kg/injection, schedule: Q01DX010 (ip), vehicle: saline) was 100 % of control; the T/C (dose: 37.5 mg/kg/injection, schedule: Q01DX010 (ip), vehicle: saline) is 113 % of control; the T/C (dose: 75.0 mg/kg/injection, schedule: Q01DX010 (ip), vehicle: saline) is 100 % of control.
On to `Nc1nc(N)c2nc(CNc3ccc(C(=O)NC(CCC(=O)O)C(=O)O)cc3)cnc2n1` (centres undefined), for which the T/C runs as follows: (dose: 0.1 mg/kg/injection, schedule: Q01DX010 (ip), vehicle: other) 162 % of control and 215 % of control; (dose: 0.2 mg/kg/injection, schedule: Q01DX010 (ip), vehicle: other) 155 % of control and 190 % of control.
On to `C[C@]12C=CC(=O)C=C1CC[C@@H]1[C@@H]2[C@@H](O)C[C@@]2(C)[C@H]1CC[C@]2(O)C(=O)CO`, for which the T/C under setting [4] is 86 % of control, the T/C under setting [5] was 100 % of control, the T/C under setting [6] was 160 % of control and the T/C under setting [7] is 115 % of control.
Turning to `C[C@@H]1C[C@@H]([C@H](O)CC2CC(=O)NC(=O)C2)C(=O)[C@@H](C)C1`, the T/C was 109 % of control under setting [17]; 100 % of control and 113 % of control under setting [18]; 95 % of control (dose: 20.0 mg/kg/injection, schedule: Q01DX010 (ip), vehicle: saline).
As for `CN1CC[C@]23c4c5ccc(O)c4O[C@H]2C(=O)CC[C@H]3[C@H]1C5`, the T/C reads like this: under setting [15], 88 % of control and 100 % of control; under setting [1], 100 % of control and 111 % of control; under setting [2], 105 % of control and 111 % of control; under setting [3], 100 % of control and 116 % of control.
Consider `O=C(Nc1ccc(C2=NCCCN2)cc1)c1ccc(C(=O)Nc2ccc(C3=NCCCN3)cc2)cc1`, for which the T/C runs as follows: under setting [13], 111 % of control and 116 % of control; under setting [14], 116 % of control and 122 % of control; under setting [1], 150 % of control.
Regarding `Nc1nc(=O)n(C2CC(O)C(CO)O2)cc1Br` (centres undefined), the T/C under setting [10] was 100 % of control; the T/C under setting [11] was 100 % of control and 105 % of control; the T/C under setting [22] is 100 % of control and 111 % of control; the T/C under setting [23] is 90 % of control and 94 % of control; the T/C (dose: 800.0 mg/kg/injection, schedule: Q01DX010 (ip), vehicle: saline) was 88 % of control.
With `S=P(N1CCOCC1)(N1CC1)N1CC1`, the T/C was 88 % of control under setting [16], 88 % of control under setting [17] and 88 % of control under setting [18].
Turning to `Nc1nc(SCc2ccccc2)c2[nH]cnc2n1`, the T/C is 90 % of control under setting [1] and 90 % of control under setting [2].
With `Oc1cc(CN(CCCl)CCCl)c(O)cc1CN(CCCl)CCCl`, the T/C (dose: 0.63 mg/kg/injection, schedule: Q01DX010 (ip), vehicle: saline) is 120 % of control.
For the compound `O[C@H](CN1CC1)[C@@H](O)CN1CC1`, the T/C is, setting by setting: (dose: 62.5 micrograms/kg/injection, schedule: Q01DX010 (ip), vehicle: saline) 175 % of control; under setting [19], 210 % of control and 235 % of control; under setting [20], 235 % of control and 300 % of control; under setting [21], 105 % of control.
In the case of `O=[n+]1c2c(n([O-])c3ccccc31)-c1cccc3cccc-2c13`, the T/C by setting is: (dose: 3.13 mg/kg/injection, schedule: Q01DX010 (ip), vehicle: saline) 100 % of control; under setting [8], 88 % of control; under setting [9], 90 % of control.
With `COC1C(OC(=O)/C=C/C=C/C=C/C=C/C(=O)O)CCC2(CO2)C1C1(C)OC1CC=C(C)C` (centres undefined), the T/C is, setting by setting: under setting [9], 100 % of control; under setting [10], 100 % of control and 110 % of control; under setting [11], 100 % of control and 104 % of control; under setting [22], 90 % of control.
With `OC(CBr)C(O)C(O)C(O)CBr` (centres undefined), the T/C is 100 % of control under setting [9]; 100 % of control under setting [10]; 100 % of control and 110 % of control under setting [11]; 89 % of control under setting [22]; 115 % of control under setting [23].
